{"source": "patent US20210223266A1", "about": "“METHODOLOGIES AND METHODS FOR MEASURING HIGHER MOLECULAR WEIGHT TRANSTHYRETIN OR EQUIVALENTS AS A CLINICAL BIOMARKER” (TTR Therapeutics, priority 2019, published 2021)", "key": {"TTR tetramer": {"biological_target": "T1, TTR tetramer (Homo sapiens, UniProt P02766)", "T1 construct": "TTR tetramer levels were measured by immunoturbidimetric (IT) assays by Abbot Laboratories; from tissue; host or cells: blood samples of human wtATTR-CM patients (literature study, Circ Heart Fail 2018)", "conditions": "wtATTR-CM, off-label diflunisal; untreated 22 mg/dL (12-29); cited from earlier work"}, "wtATTR-CM patients": {"system": "wtATTR-CM patients", "conditions": "p<0.001; cited from earlier work"}, "[1]": {"system": "TTR-assisted beta-amyloid (Aβ) transport", "conditions": "cited from earlier work"}, "TTR [2]": {"biological_target": "TTR (Homo sapiens, UniProt P02766)", "assay": "TTR levels in ATTR-CM patients on tafamidis 20 mg QD (Fx1B-201), immunoturbidimetric assays", "type": "in vivo", "conditions": "wtATTR-CM patients", "experimental": "(§1) We believe these levels were measured using immunoturbidimetric assays performed by Genzyme Analytic Services."}, "TTR [3]": {"biological_target": "TTR (Homo sapiens, UniProt P02766, V142I)", "assay": "TTR levels in ATTR-CM patients on tafamidis 20 mg QD (Fx1B-201), immunoturbidimetric assays", "type": "in vivo", "conditions": "V1221 mATTR-CM patients", "experimental": "as §1"}, "TTR [4]": {"system": "TTR", "assay": "TTR levels at tafamidis 20 vs 80 mg, Phase 3 ATTR-ACT trial", "type": "in vivo, human", "conditions": "proprietary analysis", "experimental": "We believe our discovery has relevance to the recently reported Phase 3 ATTR-ACT trial that readout positive mortality reduction with pooled tafamidis (20 mg and 80 mg QD) vs placebo. […] This is in line with one of Pfizer's expectations for the Phase 3 protocol (Maurer 2018, Phase 3 Final Protocol, 31 Jul. 2013. PF-06291826 Tafamidis Meglumine. B3461028) when looking at the plot of % TTR stabilization (y-axis) and molar ratio of tafamidis in FIG. 5: TTR levels (μM). We highlighted in red the wide ranges for pharmacodynamic effects related to 80 mg relative to 20 mg (in blue shade) to point out (1) potential for both dose-strengths to nearly overlap, (2) plotted data points were from Phase 1 data in healthy volunteers using liquid formulations of tafamidis (not capsule formulation given in Phase 3 ATTR-ACT trial), and (3) 80 mg PD expectations were calculated as a 4× multiple of 20 mg PD data, which could be important given PK variations may have not been optimized and could explain differences seen in Phase 3 ATTR-ACT clinical trial which tested 20 mg and 80 mg doses of tafamidis."}, "[5]": {"assay": "Tafamidis exposure in vitreous fluid / across blood-brain barrier after oral dosing", "type": "in vivo, human", "conditions": "long-term", "description": "Multiple publications have reported reduced serum TTR levels, as measured by nephelometry or radial immunodiffusion (commercial kits readily available), in familial amyloid polyneuropathy patients with vitreous amyloidosis. “Prealbumin. A major constituent of vitreous amyloid,” Ophthalmology. 1987 July; 94(7):792-8. […] “Transthyretin deposition in the eye in the era of effective therapy for hereditary ATTRV30M amyloidosis,” https://doi.org/10.1080/13506129.2018.1554563."}, "ATTR-CM patients": {"system": "ATTR-CM patients", "conditions": "cited from earlier work"}, "[6]": {"system": "ATTR patients with mutated TTR (V30M)", "conditions": "cited from earlier work"}, "[7]": {"conditions": "oral tafamidis (presumably 20 mg QD) long-term; cited from earlier work"}, "native TTR": {"system": "native TTR", "conditions": "Taf Group; no Taf Group 273.8 nM, non-ATTR controls 271.5 nM; not significantly different; cited from earlier work"}, "HMW TTR": {"system": "HMW TTR", "conditions": "V30M ATTR patients; cited from earlier work"}}, "data": [{"smiles": "O=C(O)c1cc(-c2ccc(F)cc2F)ccc1O", "note": "[diflunisal]", "values": [{"measurement": "TTR levels after one year", "setting": "TTR tetramer", "result": 30, "unit": "mg/dL"}, {"measurement": "one-year survival-rates vs untreated", "setting": "wtATTR-CM patients", "result": "improved one-year survival-rates"}]}, {"smiles": "O=C(O)c1cc(-c2ccc(F)cc2F)cc(I)c1O", "note": "[iodo-diflunisal]", "values": [{"measurement": "TTR-assisted beta-amyloid (Aβ) transport", "setting": "[1]", "result": "enhanced"}]}, {"smiles": "O=C(O)c1ccc2nc(-c3cc(Cl)cc(Cl)c3)oc2c1", "note": "[tafamidis]", "values": [{"measurement": "increase of TTR levels from baseline", "setting": "TTR [2]", "result": "~17", "unit": "%"}, {"measurement": "increase of TTR levels from baseline", "setting": "TTR [3]", "result": "50-60%"}, {"measurement": "differences in TTR levels between the two dose-strengths", "setting": "TTR [4]", "result": "~1", "unit": "mg/dL"}, {"measurement": "blood-brain barrier crossing", "setting": "[5]", "result": "can cross the blood-brain barrier"}, {"measurement": "lower death-rates at month-30 compared to untreated", "setting": "ATTR-CM patients; ATTR-CM patients, 20 mg tafamidis, long-term follow-up", "result": "~40", "unit": "%"}, {"measurement": "rate at month-30 (77% vs 45% untreated)", "setting": "ATTR-CM patients; ATTR-CM patients, 20 mg tafamidis", "result": 77, "unit": "%"}, {"measurement": "reduction in death-rate at month-30 vs placebo", "setting": "ATTR-CM patients; Phase 3 ATTR-ACT, pooled 20 mg QD and 80 mg QD, mATTR and wtATTR-CM", "result": "~30", "unit": "%"}, {"measurement": "ocular abnormalities", "setting": "[6]; 20 mg/day, liver transplant 34%, supportive therapy 26%", "result": 22, "unit": "%"}, {"measurement": "ocular abnormalities compared to untreated or liver transplantation", "setting": "[6]; ATTR-PN, long-term treatment (>5 years), p=0.09 vs untreated, p=0.007 vs liver transplantation", "result": "lower ocular abnormalities"}, {"measurement": "drug levels in the vitreous fluid", "setting": "[7]", "result": "detectable drug levels"}, {"measurement": "Average [native TTR] in the CSF", "setting": "native TTR", "result": 265.8, "unit": "nM"}, {"measurement": "HMW TTR levels", "setting": "HMW TTR", "result": "increase HMW TTR levels"}]}]}
